Source: PubChem BioAssay AID252 (DTP/NCI, 2004)
Where “and” joins values, the source holds several entries; their conditions need not be identical. Equal entries are not always repeated. Inconclusive results and toxic doses are left out.

System: BDF1 mice, intracerebral L1210 leukemia, survival T/C
Test: NCI In Vivo Anticancer Drug Screen. Data for tumor model L1210 Leukemia (intracerebral) in B6D2F1 (BDF1) mice
Details: higher = longer survival
In short: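 Antitumour effect is judged in mice with transplanted tumour by comparing survival of treated (T) against vehicle-dosed (C) groups as T/C.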

CS(=O)(=O)Nc1ccc(Nc2c3ccccc3nc3cc([N+](=O)[O-])ccc23)cc1
T/C (endpoint: mean survival time, dose: 1.25 mg/kg/injection, schedule: Q01DX009 (ip), vehicle: Klucel (hydroxypropylcellulose) (HPC)): 91 % of control | T/C (endpoint: mean survival time, dose: 1.25 mg/kg/injection, schedule: Q01DX009 (sc), vehicle: Klucel (hydroxypropylcellulose) (HPC)): 106 % of control | T/C (endpoint: mean survival time, dose: 2.5 mg/kg/injection, schedule: Q01DX009 (ip), vehicle: Klucel (hydroxypropylcellulose) (HPC)): 87 % of control | T/C (endpoint: mean survival time, dose: 2.5 mg/kg/injection, schedule: Q01DX009 (sc), vehicle: Klucel (hydroxypropylcellulose) (HPC)): 97 % of control | T/C (endpoint: mean survival time, dose: 3.12 mg/kg/injection, schedule: Q01DX001 (ip), vehicle: saline): 98 % of control | T/C (endpoint: mean survival time, dose: 5.0 mg/kg/injection, schedule: Q01DX009 (ip), vehicle: Klucel (hydroxypropylcellulose) (HPC)): 89 % of control | T/C (endpoint: mean survival time, dose: 5.0 mg/kg/injection, schedule: Q01DX009 (sc), vehicle: Klucel (hydroxypropylcellulose) (HPC)): 103 % of control | T/C (endpoint: mean survival time, dose: 6.25 mg/kg/injection, schedule: Q01DX001 (ip), vehicle: saline): 98 % of control | T/C (endpoint: mean survival time, dose: 10.0 mg/kg/injection, schedule: Q01DX009 (sc), vehicle: Klucel (hydroxypropylcellulose) (HPC)): 102 % of control | T/C (endpoint: mean survival time, dose: 12.5 mg/kg/injection, schedule: Q01DX001 (ip), vehicle: saline): 101 % of control | T/C (endpoint: mean survival time, dose: 25.0 mg/kg/injection, schedule: Q01DX001 (ip), vehicle: saline): 101 % of control | T/C (endpoint: mean survival time, dose: 50.0 mg/kg/injection, schedule: Q01DX001 (ip), vehicle: saline): 90 % of control

NC(Cc1ccc(N(CCCl)CCCl)cc1)C(=O)O (centres undefined)
T/C (endpoint: mean survival time, dose: 8.0 mg/kg/injection, schedule: Q01DX001 (ip), vehicle: carboxymethylcellulose (CMC)): 119 % of control | T/C (endpoint: mean survival time, dose: 12.0 mg/kg/injection, schedule: Q01DX001 (ip), vehicle: carboxymethylcellulose (CMC)): 117 % of control

CN(N=O)C(=O)Nc1ccccc1
T/C (endpoint: mean survival time, dose: 150.0 mg/kg/injection, schedule: Q01DX001 (ip), vehicle: carboxymethylcellulose (CMC)): 103 % of control | T/C (endpoint: mean survival time, dose: 300.0 mg/kg/injection, schedule: Q01DX001 (ip), vehicle: carboxymethylcellulose (CMC)): 98 % of control

c1cc2n(n1)CCN2
T/C (endpoint: median survival time, dose: 50.0 mg/kg/injection, schedule: Q01DX009 (ip), vehicle: water): 94 % of control | T/C (endpoint: median survival time, dose: 100.0 mg/kg/injection, schedule: Q01DX009 (ip), vehicle: water): 106 % of control | T/C (endpoint: median survival time, dose: 100.0 mg/kg/injection, schedule: Q04DX003 (ip), vehicle: water): 102 % of control | T/C (endpoint: median survival time, dose: 200.0 mg/kg/injection, schedule: Q01DX009 (ip), vehicle: water): 107 % of control | T/C (endpoint: median survival time, dose: 200.0 mg/kg/injection, schedule: Q04DX003 (ip), vehicle: water): 114 % of control | T/C (endpoint: median survival time, dose: 300.0 mg/kg/injection, schedule: Q04DX003 (ip), vehicle: water): 116 % of control

NCCc1ccc(O)c(O)c1
T/C (endpoint: mean survival time, dose: 100.0 mg/kg/injection, schedule: Q04DX003 (ip), vehicle: saline): 102 % of control | T/C (endpoint: mean survival time, dose: 200.0 mg/kg/injection, schedule: Q04DX003 (ip), vehicle: saline): 95 % of control | T/C (endpoint: mean survival time, dose: 400.0 mg/kg/injection, schedule: Q04DX003 (ip), vehicle: saline): 98 % of control | T/C (endpoint: mean survival time, dose: 800.0 mg/kg/injection, schedule: Q04DX003 (ip), vehicle: saline): 97 % of control

CC(=O)OC1CCC(NC(=O)N(CCCl)N=O)CC1 (centres undefined)
T/C (endpoint: mean survival time, dose: 24.0 mg/kg/injection, schedule: Q01DX001 (ip), vehicle: other): 364 % of control | T/C (endpoint: mean survival time, dose: 36.0 mg/kg/injection, schedule: Q01DX001 (ip), vehicle: other): 500 % of control | T/C (endpoint: mean survival time, dose: 54.0 mg/kg/injection, schedule: Q01DX001 (ip), vehicle: other): 423 % of control

O=C1C(NCCO)=C(N2CC2)C(=O)C(NCCO)=C1N1CC1
T/C (endpoint: mean survival time, dose: 0.18 mg/kg/injection, schedule: Q01DX009 (ip), vehicle: saline): 108 % of control and 116 % of control | T/C (endpoint: mean survival time, dose: 0.37 mg/kg/injection, schedule: Q01DX009 (ip), vehicle: saline): 114 % of control | T/C (endpoint: mean survival time, dose: 1.5 mg/kg/injection, schedule: Q01DX009 (ip), vehicle: saline): 98 % of control

CC(C)(Cc1ccccc1)NC(=O)N(CCCl)N=O
T/C (endpoint: mean survival time, dose: 375.0 mg/kg/injection, schedule: Q01DX001 (ip), vehicle: other): 122 % of control | T/C (endpoint: mean survival time, dose: 500.0 mg/kg/injection, schedule: Q01DX001 (ip), vehicle: other): 114 % of control
